Data on 17 molecules can be found in patent US20210070748A1, “INHIBITORS OF BRUTONS TYROSINE KINASE” (Pharmacyclics LLC, priority 2015, published 2021).

Assay type in all cases: biochemical
One assay deals with LCK (Homo sapiens, UniProt P06239). In words: Inhibition of a panel of kinases, in vitro HotSpot kinase assay: LCK. As to conditions: D-compounds panel data; 1 μM ATP; read-out: IC50 LCK.
The target of another assay is T1, ITK (Homo sapiens, UniProt Q08881).
T1 sequence (Q08881 1-620): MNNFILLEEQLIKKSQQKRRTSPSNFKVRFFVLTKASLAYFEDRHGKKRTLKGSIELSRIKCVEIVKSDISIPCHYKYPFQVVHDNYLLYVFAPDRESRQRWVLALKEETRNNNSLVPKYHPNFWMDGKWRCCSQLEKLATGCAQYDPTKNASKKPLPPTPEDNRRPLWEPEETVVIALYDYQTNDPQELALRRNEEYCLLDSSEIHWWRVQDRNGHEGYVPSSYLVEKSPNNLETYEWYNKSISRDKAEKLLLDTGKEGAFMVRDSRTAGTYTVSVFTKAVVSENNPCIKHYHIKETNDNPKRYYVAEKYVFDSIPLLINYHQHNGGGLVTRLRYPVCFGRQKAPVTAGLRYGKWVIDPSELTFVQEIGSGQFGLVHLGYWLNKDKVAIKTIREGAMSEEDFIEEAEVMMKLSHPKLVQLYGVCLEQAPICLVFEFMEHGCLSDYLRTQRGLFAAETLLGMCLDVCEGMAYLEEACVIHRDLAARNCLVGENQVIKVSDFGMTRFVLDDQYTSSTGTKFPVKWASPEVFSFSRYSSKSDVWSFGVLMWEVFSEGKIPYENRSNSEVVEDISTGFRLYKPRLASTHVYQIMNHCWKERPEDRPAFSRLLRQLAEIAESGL
In words: Inhibition of a panel of kinases, in vitro HotSpot kinase assay: ITK. The settings on record: D-compounds panel data; 1 μM ATP. As for the experimental part: (§1) The degree of inhibition of a panel of kinases is determined using the in vitro HotSpot kinase assay (purified enzymes, ^33P-ATP, an appropriate substrate and 1 μM ATP).

Another assay deals with T2, TEC (Homo sapiens, UniProt P42680).
T2 sequence (P42680 1-631): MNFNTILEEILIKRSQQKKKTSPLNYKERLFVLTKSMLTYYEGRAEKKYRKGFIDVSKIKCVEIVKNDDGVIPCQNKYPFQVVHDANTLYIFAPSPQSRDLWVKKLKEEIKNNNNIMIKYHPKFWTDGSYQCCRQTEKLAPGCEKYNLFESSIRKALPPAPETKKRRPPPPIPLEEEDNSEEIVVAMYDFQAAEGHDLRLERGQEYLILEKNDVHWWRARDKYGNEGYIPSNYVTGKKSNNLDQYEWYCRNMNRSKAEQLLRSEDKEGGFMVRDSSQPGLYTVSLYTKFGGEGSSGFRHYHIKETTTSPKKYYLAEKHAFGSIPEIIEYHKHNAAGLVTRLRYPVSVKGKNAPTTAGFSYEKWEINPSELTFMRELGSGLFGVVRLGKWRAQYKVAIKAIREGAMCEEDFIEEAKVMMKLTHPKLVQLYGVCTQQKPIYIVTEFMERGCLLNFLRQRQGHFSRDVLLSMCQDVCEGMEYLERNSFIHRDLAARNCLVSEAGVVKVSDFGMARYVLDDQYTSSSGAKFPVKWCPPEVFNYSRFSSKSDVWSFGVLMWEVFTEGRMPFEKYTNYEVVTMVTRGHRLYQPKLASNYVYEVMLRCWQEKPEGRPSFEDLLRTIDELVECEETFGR
In words: Inhibition of a panel of kinases, in vitro HotSpot kinase assay: TEC. The settings on record: D-compounds panel data; 1 μM ATP. The protocol:
as §1

LCK, sequence (P06239 whole entry): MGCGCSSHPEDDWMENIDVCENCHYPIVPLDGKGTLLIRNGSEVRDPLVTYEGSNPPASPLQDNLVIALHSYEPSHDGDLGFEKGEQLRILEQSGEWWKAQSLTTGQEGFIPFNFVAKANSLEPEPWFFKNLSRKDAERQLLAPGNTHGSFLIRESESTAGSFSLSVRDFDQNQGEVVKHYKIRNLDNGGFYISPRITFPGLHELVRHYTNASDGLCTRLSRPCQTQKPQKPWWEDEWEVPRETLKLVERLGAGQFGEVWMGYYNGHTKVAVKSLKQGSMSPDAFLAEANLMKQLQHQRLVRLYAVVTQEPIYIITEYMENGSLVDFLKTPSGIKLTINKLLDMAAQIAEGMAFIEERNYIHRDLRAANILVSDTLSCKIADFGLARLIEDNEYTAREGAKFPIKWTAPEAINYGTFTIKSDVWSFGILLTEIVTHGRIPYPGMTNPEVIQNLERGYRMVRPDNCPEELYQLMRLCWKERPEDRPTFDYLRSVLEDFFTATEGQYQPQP

The term IC50 denotes the midpoint of a concentration-inhibition curve. Take `C[C@@H]1[C@H](NC(=O)c2ccc(C3CC3)cc2)CCCN1c1cnc(C(N)=O)c(Nc2ccc(OC3CCN4CCCC4C3)cc2)n1` (stereo partly drawn) [Example D-211, 5-[(2R,3R)-3-(4-cyclopropylbenzamido)-2-methylpiperidin-1-yl]-3-{[4-(octahydroindolizin-7-yloxy)phenyl]amino}pyrazine-2-carboxamide]: the IC50 was 10 to 100 nM at LCK, 100 to 1000 nM at ITK and at most 10 nM on TEC.
In the case of `Cn1cc(Nc2nc(N3C[C@@H](NC(=O)c4ccc(C5CC5)cc4)CC(F)(F)C3)cnc2C(N)=O)cn1` [Example D-189, 5-[(5S)-5-(4-cyclopropylbenzamido)-3,3-difluoropiperidin-1-yl]-3-[(1-methyl-1H-pyrazol-4-yl)amino]pyrazine-2-carboxamide], the figures for the IC50 at LCK, against ITK and against TEC were above 10000 nM, above 10000 nM and 1000 to 10000 nM, respectively.
For the molecule `C[C@@H]1[C@H](NC(=O)c2ccc(C(C)(C)C)cc2F)CCCN1c1cnc(C(N)=O)c(Nc2cnn(C)c2)n1` [Example D-223, 5-[(2R,3R)-3-(4-tert-butyl-2-fluorobenzamido)-2-methylpiperidin-1-yl]-3-[(1-methyl-1H-pyrazol-4-yl)amino]pyrazine-2-carboxamide], the 50% inhibitory concentration (IC50) on LCK lay in the range of 100 to 1000 nM; at ITK, 1000 to 10000 nM; at TEC, 10 to 100 nM.
The like results for `C[C@@H]1[C@H](NC(=O)c2ccc(C(C)(C)C)s2)CCCN1c1cnc(C(N)=O)c(Nc2cnn(C)c2)n1` [Example D-229, 5-[(2R,3R)-3-(5-tert-butylthiophene-2-amido)-2-methylpiperidin-1-yl]-3-[(1-methyl-1H-pyrazol-4-yl)amino]pyrazine-2-carboxamide] were, in that order, 10 to 100 nM, 1000 to 10000 nM and 10 to 100 nM.
The like results for `CN1CCN(c2ccc(Nc3nc(N4CCC[C@@H](n5ccc6cc(C7CC7)cc(F)c6c5=O)C4)cnc3C(N)=O)cc2)CC1` [Example D-174, 5-[(3R)-3-(6-cyclopropyl-8-fluoro-1-oxo-1,2-dihydroisoquinolin-2-yl)piperidin-1-yl]-3-{[4-(4-methylpiperazin-1-yl)phenyl]amino}pyrazine-2-carboxamide] were, in that order, 100 to 1000 nM, 100 to 1000 nM and 10 to 100 nM.
The like results for `Cc1cc(Nc2nc(N3C[C@H](NC(=O)c4ccc(C5CC5)cc4F)CC[C@@H]3C)cnc2C(N)=O)sn1` [Example D-181, 5-[(2S,5R)-5-(4-cyclopropyl-2-fluorobenzamido)-2-methylpiperidin-1-yl]-3-[(3-methyl-1,2-thiazol-5-yl)amino]pyrazine-2-carboxamide] were, in that order, 100 to 1000 nM, 1000 to 10000 nM and 10 to 100 nM.
`COc1cc(C(=O)N[C@@H]2CCCN(c3cnc(C(N)=O)c(Nc4cnn(C)c4)n3)[C@@H]2C)ccc1C1CC1` [Example D-231, 5-[(2R,3R)-3-(4-cyclopropyl-3-methoxybenzamido)-2-methylpiperidin-1-yl]-3-[(1-methyl-1H-pyrazol-4-yl)amino]pyrazine-2-carboxamide]: the half-inhibitory concentration (IC50) at LCK lay within 100 to 1000 nM; against ITK, 100 to 1000 nM; against TEC, 10 to 100 nM.
For the molecule `CN1CCN(c2ccc(Nc3cc(N4CCC[C@@H](n5ccc6cc(C7CC7)ccc6c5=O)C4)cnc3C(N)=O)cc2)CC1` [Example D-178, 5-[(3R)-3-(6-cyclopropyl-1-oxo-1,2-dihydroisoquinolin-2-yl)piperidin-1-yl]-3-{[4-(4-methylpiperazin-1-yl)phenyl]amino}pyridine-2-carboxamide], the concentration for half-maximal inhibition (IC50) on LCK, against ITK and against TEC was 1000 to 10000 nM throughout.
As to `C[C@@H]1[C@H](NC(=O)c2ccc(C3(C)COC3)cc2)CCCN1c1cnc(C(N)=O)c(Nc2cnn(C)c2)n1` [Example D-228, 3-[(1-methyl-1H-pyrazol-4-yl)amino]-5-[(2R,3R)-2-methyl-3-[4-(3-methyloxetan-3-yl)benzamido]piperidin-1-yl]pyrazine-2-carboxamide], the IC50 on LCK was 100 to 1000 nM; against ITK, 100 to 1000 nM; against TEC, at most 10 nM.
For `Cc1nc2cc(C(=O)N[C@@H]3CCCN(c4cnc(C(N)=O)c(Nc5cnn(C)c5)n4)[C@@H]3C)ccc2o1` [Example D-238, N-[(2R,3R)-1-{5-carbamoyl-6-[(1-methyl-1H-pyrazol-4-yl)amino]pyrazin-2-yl}-2-methylpiperidin-3-yl]-2-methyl-1,3-benzoxazole-5-carboxamide], the IC50 on LCK is 10 to 100 nM; against ITK it was 100 to 1000 nM; against TEC, at most 10 nM.
The like results for `C[C@@H]1[C@H](NC(=O)c2ccc(C3CC3)cc2Cl)CCCN1c1cnc(C(N)=O)c(Nc2ccc(N3CCN(C)CC3)cc2)n1` [Example D-16, 5-[(2R,3R)-3-(2-chloro-4-cyclopropylbenzamido)-2-methylpiperidin-1-yl]-3-{[4-(4-methylpiperazin-1-yl)phenyl]amino}pyrazine-2-carboxamide] were, in that order, 10 to 100 nM, 100 to 1000 nM and 10 to 100 nM.
Take `C[C@@H]1[C@H](NC(=O)c2cnc(C3CC3)cn2)CCCN1c1cnc(C(N)=O)c(Nc2cnn(C)c2)n1` [Example D-205, 5-[(2R,3R)-3-(5-cyclopropylpyrazine-2-amido)-2-methylpiperidin-1-yl]-3-[(1-methyl-1H-pyrazol-4-yl)amino]pyrazine-2-carboxamide]: the figures for the 50% inhibitory concentration (IC50) on LCK, on ITK and at TEC were 10 to 100 nM, 100 to 1000 nM and at most 10 nM, respectively.
The like results for `C[C@@H]1[C@H](NC(=O)c2ccc(C3CC3)c(Cl)c2)CCCN1c1cnc(C(N)=O)c(Nc2ccc(N3CCN(C)CC3)cc2)n1` [Example D-17, 5-[(2R,3R)-3-(3-chloro-4-cyclopropylbenzamido)-2-methylpiperidin-1-yl]-3-{[4-(4-methylpiperazin-1-yl)phenyl]amino}pyrazine-2-carboxamide] were, in that order, 100 to 1000 nM, 100 to 1000 nM and 100 to 1000 nM.
The like results for `C[C@@H]1[C@H](NC(=O)c2ccc(C3CC3)cc2F)CCCN1c1cnc(C(N)=O)c(Nc2ccc(N3CCN(C)C[C@@H]3C)cc2)n1` [Example D-12, 5-[(2R,3R)-3-(4-cyclopropyl-2-fluorobenzamido)-2-methylpiperidin-1-yl]-3-({4-[(2S)-2,4-dimethylpiperazin-1-yl]phenyl}amino)pyrazine-2-carboxamide] were, in that order, 10 to 100 nM, 100 to 1000 nM and 10 to 100 nM.
The like results for `CCN(CC)c1ccc(C(=O)N[C@@H]2CCCN(c3cnc(C(N)=O)c(Nc4cnn(C)c4)n3)[C@@H]2C)cc1` [Example D-218, 5-[(2R,3R)-3-[4-(diethylamino)benzamido]-2-methylpiperidin-1-yl]-3-[(1-methyl-1H-pyrazol-4-yl)amino]pyrazine-2-carboxamide] were, in that order, 100 to 1000 nM, 100 to 1000 nM and at most 10 nM.
Consider `C[C@@H]1[C@H](NC(=O)c2ccc(C3CC3)cn2)CCCN1c1cnc(C(N)=O)c(Nc2ccc(N3CCN(C)CC3)cc2)n1` [Example D-188, 5-[(2R,3R)-3-(5-cyclopropylpyridine-2-amido)-2-methylpiperidin-1-yl]-3-{[4-(4-methylpiperazin-1-yl)phenyl]amino}pyrazine-2-carboxamide], for which the IC50 at LCK lay within 100 to 1000 nM; on ITK, 100 to 1000 nM; at TEC it was 10 to 100 nM.
Consider `C[C@@H]1[C@H](NC(=O)c2ccc(SC(F)(F)F)cc2)CCCN1c1cnc(C(N)=O)c(Nc2ccc(N3CCN(C)CC3)cc2)n1` [Example D-233, 5-[(2R,3R)-2-methyl-3-{4-[(trifluoromethyl)sulfanyl]benzamido}piperidin-1-yl]-3-{[4-(4-methylpiperazin-1-yl)phenyl]amino}pyrazine-2-carboxamide], for which the 50% inhibitory concentration (IC50) at LCK fell in the range of 100 to 1000 nM; on ITK, 100 to 1000 nM; against TEC, 10 to 100 nM.
